Experiments:
[1] = daily doses higher than 1 mg/day; cited from earlier work
[2] = Cholecalciferol dosing, calciuria and hypercalcemia in renal patients; type: in vivo, human
Description: The inventor has discovered that these therapeutic approaches are obsolete today because of the risk of prolonged hypercalcemia resulting from the long half-life of 25-(OH)-D3 in renal patients. […] Likewise, the inventor has discovered that repletion of vitamin D to achieve a plasma 25-(OH)-D concentration in the 80th percentile or higher of normal clinical values prevents renal osteodystrophy, Looser zones, and sub-periosteal resorption, despite the persistence of hypocalcemia, hyperphosphatemia and metabolic acidosis, or the use of calcium-aluminum free phosphate binders such as sevelamer salts. Therefore, a composition of the invention comprises 375 to 425 IU of vitamin D and a preferred embodiment of a composition of the invention provides 400 IU of vitamin D.

[3] = cited from earlier work
[4] = blood flow of 200-300 mL/min; cited from earlier work
[5] = 43 maintenance hemodialysis patients, low flux/low efficiency dialyzers; 200 mg post-dialysis 2-3 times per week (400-600 mg weekly) orally; cited from earlier work
[6] = up to 200 mg/day; cited from earlier work
[7] = zinc supplementation, dialysis patients; cited from earlier work
[8] = 400 μg/L in dialysate, 6 months; cited from earlier work
[9] = daily oral 25 mg elemental zinc, 6 months; from 81±8 mcg/dL; normal controls 111±10 μg/dL; p<0.005; cited from earlier work
[10] = in vivo; cited from earlier work
[11] = cited from earlier work; remark: listed apart in the source
[12] = 15 days of treatment with 300 mg/day; hemodialysis patients; cited from earlier work
[13] = single oral dose of 1200 IU; cited from earlier work
[14] = Daily vitamin K over several years in the general population; type: in vivo, human; details: 1 mg dose each day over several years
Description: The inventor has discovered that the 10 mcg dose of vitamin K that is provided in conventional multivitamin preparations is too low. […] A composition of their invention comprises vitamin K in doses that are appropriate for subjects with renal disease and provides 25 to 1000 mcg of vitamin K, and a preferred embodiment of a composition of the invention provides 50 mcg of vitamin K.

Compound: Nc1nc2ncc(CNc3ccc(C(=O)N[C@@H](CCC(=O)O)C(=O)O)cc3)nc2c(=O)[nH]1 [Folic acid]
- renal patients in whom plasma homocysteine levels are lowered [1]: up to 30%

Compound: C=C1CC[C@H](O)C/C1=C/C=C1\CCC[C@]2(C)[C@@H]([C@H](C)CCCC(C)C)CC[C@@H]12 [cholecalciferol]
- calciuria and hypercalcemia ([2]; dose of 800 IU or 20 mcg, pre-dialysis patients): does not cause an increase in calciuria in pre-dialysis patients nor hypercalcemia
- calciuria and hypercalcemia ([2]; doses in excess of 2400 IU or 60 mcg/day): these complications are seen

Compound: [Se] [selenium]
- APACHE III score versus untreated group ([3]; SIRS patients): significantly lower
- time to normalization of serum selenium levels and GSH-Px activity ([3]; Se treated SIRS patients): ≤ 3 days
- overall mortality ([3]; Se+ group, 52% in the Se− group): 33.5%

Compound: O=C1O[C@H]([C@@H](O)CO)C(O)=C1O [vitamin C, ascorbic acid]
- clearance of vitamin C (ascorbate) during hemodialysis [4]: about 100 mL/min
- patients with decreased plasma vitamin C levels / serum levels not maintained despite supplement [5]: 27%
- bioavailability [6]: ~100%

Compound: [Zn] [zinc]
- patients with plasma testosterone levels increased into the normal range [7]: 50%
- intracellular content of ATP in lymphocytes [8]: increased intracellular content of ATP in lymphocytes
- serum zinc level [8]: significant increase in serum zinc level
- plasma Zn levels after treatment [9]: 110 ± 14 µg/dL
- plasma level at which zinc toxicity is seen [10]: around 700 mcg/dL

Compound: Fe(III) hydroxide sucrose complex
- hemodialysis patients with bleomycin-detectable free iron in the circulation ([11]; 100 mg intravenously): 8 of the 10
- plasma total peroxide and malondialdehyde concentrations ([11]; within ten minutes following infusion of 100 mg): rise in plasma total peroxide and malondialdehyde concentrations

Compound: vitamin E
- platelet vitamin E levels [12]: increased to the normal range
- oxidative stress induced by intravenous iron [13]: effective in attenuating the oxidative stress

Compound: vitamin K
- untoward effects [14]: no untoward effects

From patent publication US8911798B2, “Multivitamin and mineral compositions for individuals having renal disease” (priority 2007, dated 2014)
